pIC50: −log10 of the molar value.
Target: T1, LPAAT-β (Homo sapiens, UniProt O15120)
T1 construct: the full-length human LPAAT-β cDNA was amplified by PCR; poly-histidine tag (from pFastBac HTc vector) (N); made in house; host or cells: Sf9 insect cells (baculovirus); membrane fraction used
T1 sequence (O15120 24-278): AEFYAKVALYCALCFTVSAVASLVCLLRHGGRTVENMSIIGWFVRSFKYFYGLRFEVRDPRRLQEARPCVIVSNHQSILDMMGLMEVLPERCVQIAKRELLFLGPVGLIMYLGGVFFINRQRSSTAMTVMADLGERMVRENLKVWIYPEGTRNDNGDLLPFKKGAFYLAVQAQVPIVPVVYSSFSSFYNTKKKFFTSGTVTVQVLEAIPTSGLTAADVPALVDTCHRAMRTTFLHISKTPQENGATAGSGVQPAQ
Assay: LPAAT-β cell-free assay (colorimetric primary screen, radiometric/fluorescent TLC secondary assay)
Type: biochemical
Conditions: Sf9 cell membrane overexpressing LPAAT-β
Text: A. Production of Recombinant LPAAT-β for Assays
For the construction of Baculovirus expression vectors, the full-length human LPAAT-β cDNA was amplified by PCR from the DNA template pCE9.LPAAT-β (West et al., DNA Cell Biol. 16:691-701 (1997)) using the primers 5′-[…] […] […] […]-3′ (olpb1F; SEQ ID NO:1) and 5′-[…] […] […]-3′ (olpb1R; SEQ ID NO:2). The ˜870 bp fragment generated was reamplified by PCR using the primers 5′[…] […] […] […] ATC-3′ (olpb2F; SEQ ID NO:3) and 5′-[…] […] […]-3′ (olpb1R; SEQ ID NO:2). The ˜890 bp fragment generated was then cleaved with Sal I and Xba I for insertion into pFastBac™ HTc vector (Life Technologies, Gaithersberg, Md.) between the Sal I and Xba I sites for the generation of the plasmid pFB.LPAAT-β. This plasmid was then transformed into E. coli DH10Bac™ (Life Technologies, Gaithersberg, Md.) for the generation of recombinant Bacmid DNA for transfection in HighFive (Invitrogen, San Diego, Calif.) or SF9 insect cells for the production of recombinant Baculovirus stocks using the protocol described in the Bac-to-Bac® Baculovirus Expression System (Life Technologies, Gaithersberg, Md.), a eukaryotic expression system for generating recombinant baculovirus through site-specific transposition in E. coli. Viral stocks harvested from the transfected cells can then be used to infect fresh insect cells for the subsequence expression of LPAAT-β fusion protein with a poly-histidine tag and a myc-epitope near its N-terminus. The membrane fraction from these Sf9 cells would be the source of LPAAT enzyme.
B. Preparation of Cell Membranes from Sf9 Cells
For the preparation of membranes from Sf9 Cells, all steps are performed on ice or at 4° C. Sf9 cell pellets (˜10^8 cells) were thawed and resuspended in 1-2 ml of buffer A (20 mM Hepes, pH 7.5, 1 mM DTT, 1 mM EDTA, 20% w/v glycerol, 1 mM Benzamidine, 1 μg/ml soybean trypsin inhibitor (SBTI), 1 μg/ml pepstatin A) w/o DTT but with 1 mM Pefabloc. The cells were lysed by sonication using a Branson Sonifier at output=2, duty cycle=2, 10 pulses each at 10s. with the tip of small sonicator probe submerged but not touching the walls. DTT was then added to 1 mM from a 1 M stock. The samples were centrifuged at 1500 rpm for 5 min. The low speed supernatant was saved and centrifuged (TLA 100.3 rotor, polycarbonate tubes, 2 ml/tube or 1.5 ml/tube minimum) at 100000×g for 1 hr. The high speed pellet was resuspend in Buffer A with a probe sonicator (10 pulses @ output #2 and duty cycle 20%) as a source of LPAAT enzyme.
C. Assay of LPAAT-β Activity
LPAAT-β catalyzes the transfer of an acyl group from a donor such as acyl-CoA to LPA. The transfer of the acyl group from acyl-CoA to LPA leads to the release of free CoA, which can be reacted with the thiol reagent, 5,5′-dithiobis(2-nitrobenzoic acid) (DTNB). The reaction between DTNB and the free sulfhydryl group from CoA generates a yellow-colored product, 3-carboxylato-4-nitrothiophenolate (CNP), that absorbs at 413 nm. LPAAT-β derived from Sf9 cell membrane overexpressing LPAAT-β were resuspended in HEPES saline buffer (20 mM HEPES pH 7.5, 150 mM NaCl), 1 mg/ml BSA and 72 μl aliquots were distributed into 96-well microtiter plates. 8 μl of compound of interest at 200 μM dissolved in 100% DMSO was added into each well. 20 μl of 1 mM 18:1-CoA and 1 mM sn-1-18:1 lysoPA was then added to each well to initiate the reaction and allowed to run at room temperature for 25 min. 100 μl of 1 mM DTNB in 100% ethanol was then added to each well to quench the reaction and for color development. The absorbance at 405 nm, measured using a spectrophotometer plate reader, is proportional to the activity of LPAAT-β in the sample. This colorimetric assay was used for the high throughput screening of LPAAT inhibitors.

Row | Structure (SMILES) | pIC50
1 | CNc1cc(Nc2nc(N)nc(-c3cc(Cl)ccc3C)n2)ccc1Cl [Example 34, N-(4-Chloro-3-methylamino-phenyl)-6-(5-chloro-2-methyl-phenyl)-[1,3,5]triazine-2,4-diamine] | 6.80
2 | Cc1ccc(Cl)cc1-c1nc(N)nc(Nc2ccc(COC(=O)[C@@H](N)CC(=O)O)cc2)n1 [Example 72, (S)-2-Amino-succinic acid 1-{4-[4-amino-6-(5-chloro-2-methyl-phenyl)-[1,3,5]triazin-2-ylamino]-benzyl}ester] | 5.85
3 | Cc1nc(Nc2ccc3cn[nH]c3c2)nc(-c2cc(Cl)ccc2C)n1 [Example 22, [4-(5-Chloro-2-methyl-phenyl)-6-methyl-[1,3,5]triazin-2-yl]-(1H-indazol-6-yl)-amine] | 7.89
4 | COCCOc1ccc(Cl)cc1-c1nc(N)nc(Nc2ccc(Cl)cc2)n1 [Example 65, 6-[5-Chloro-2-(2-methoxy-ethoxy)-phenyl]-N-(4-chloro-phenyl) [1,3,5]triazine-2,4-diamine] | 6.22
5 | Cc1ccc(Cl)cc1-c1nc(N)nc(Nc2ccc(C=O)cc2)n1 [Example 87, 4-[4-Amino-6-(5-chloro-2-methyl-phenyl)-[1,3,5]triazin-2-ylamino]-benzaldehyde] | 6.96
6 | Nc1nc(Nc2ccc(Cl)cc2)nc(-c2cc(C(F)(F)F)ccc2Cl)n1 [Example 81, N-(4-Chloro-phenyl)-6-(2-chloro-5-trifluoromethyl-phenyl)-[1,3,5]triazine-2,4-diamine] | 7.00
7 | Cc1ccc(Br)c(-c2nc(N)nc(Nc3ccc(Cl)cc3)n2)c1 [Example 86, 6-(2-bromo-5-methyl-phenyl)-N-(4-chloro-phenyl)-[1,3,5]triazine-2,4-diamine] | 6.35
8 | Cc1ccc(Cl)cc1-c1nc(N)nc(Nc2ccc(COC(=O)CC[C@H](N)C(=O)O)cc2)n1 [Example 63, (S)-2-Amino-pentanedioic acid 5-{4-[4-amino-6-(5-chloro-2-methyl-phenyl)-[1,3,5]triazin-2-ylamino]-benzyl}ester] | 5.51
9 | Cc1nc(Nc2ccc(Br)cc2)nc(-c2cc(Cl)ccc2C)n1 [Example 23] | 7.85
10 | COc1ccc(Cl)cc1-c1nc(N)nc(Nc2ccc(C)cc2)n1 [Example 79, 6-(5-Chloro-2-methoxy-phenyl)-N-p-tolyl-[1,3,5]triazine-2,4-diamine] | 6.64
11 | Cc1ccc(Nc2nc(N)nc(-c3cc(Cl)ccc3Cl)n2)cc1 [Example 49, 6-(2,5-Dichloro-phenyl)-N-p-tolyl-[1,3,5]triazine-2,4-diamine] | 6.68
12 | Cc1ccc(Cl)cc1-c1nc(Cl)nc(Nc2ccc([N+](=O)[O-])cc2)n1 [Example 30, [6-(5-Chloro-2-methyl-phenyl)-2-chloro-3-yl-[1,3,5]-triazin-4-yl]-(4-nitro-phenyl)-amine] | 8.00
13 | N#Cc1ccc(Nc2nc(N)nc(-c3cc(Cl)ccc3Cl)n2)cc1 [Example 89, 4-[4-Amino-6-(2,5-dichlorophenyl)-[1,3,5]triazin-2-ylamino]-benzonitrile] | 7.00
14 | Cc1ccc(C)c(-c2nc(N)nc(Nc3ccc(Cl)cc3)n2)c1 [Example 14, N-(4-chlorophenyl)-6-(2,5-dimethylphenyl)-[1,3,5]triazine-2,4-diamine] | 6.60
15 | CNc1nc(Nc2ccc(CO)cc2)nc(-c2cc(Cl)ccc2C)n1 [Example 74, {4-[4-(5-Chloro-2-methyl-phenyl)-6-methylamino-[1,3,5]-triazin-2-ylamino]-phenyl}-methanol] | 6.17
16 | Cc1ccc(Cl)cc1-c1nc(N)nc(Nc2ccc(COC(=O)CCC(=O)O)cc2)n1 [Example 70] | 6.08

Row | Structure (SMILES) | pIC50
17 | CCOc1ccc(Cl)cc1-c1nc(N)nc(Nc2ccc(C)cc2)n1 [Example 61, 6-(5-Chloro-2-ethoxyphenyl)-N-p-tolyl-[1,3,5]triazine-2,4-diamine] | 5.64
18 | Cc1ccc(Cl)cc1-c1ncnc(Nc2ccc(Cl)cc2)n1 [Example 33, [6-(5-Chloro-2-methyl-phenyl)-[1,3,5]triazin-4-yl]-(4-chloro-phenyl)-amine] | 6.62
19 | CCOc1ccc(Cl)cc1-c1nc(N)nc(Nc2ccc(Cl)c(C(=O)NC)c2)n1 [Example 62, 5-[4-Amino-6-(5-chloro-2-ethoxyphenyl)-[1,3,5]triazin-2-ylamino]-2-chloro-N-methylbenzamide] | 6.00
20 | Cc1ccc(Nc2nc(N)nc(-c3cc(Cl)ccc3C)n2)cc1 [Example 39, 6-(5-Chloro-2-methyl-phenyl)-N-p-tolyl-[1,3,5]triazine-2,4-diamine] | 6.49
21 | COc1ccc(Cl)cc1-c1nc(N)nc(Nc2ccc(Cl)cc2)n1 [Example 1, 6-(5-Chloro-2-methoxyphenyl)-N-(4-chlorophenyl)-[1,3,5]triazine-2,4-diamine] | 7.24
22 | COc1ccc(Cl)cc1-c1nc(N)nc(Nc2ccc(F)cc2)n1 [Example 15, 6-(5-Chloro-2-methoxyphenyl)-N-(4-fluorophenyl)-[1,3,5]triazine-2,4-diamine] | 6.37
23 | Nc1nc(Nc2ccc(Cl)cc2)nc(-c2cc(Cl)ccc2Br)n1 [Example 80, 6-(2-Bromo-5-chloro-phenyl)-N-(4-chloro-phenyl)-[1,3,5]triazine-2,4-diamine] | 6.85
24 | Cc1ccc(Cl)cc1-c1nc(Nc2ccc(Cl)cc2)nc(N2CCCCC2)n1 [Example 31] | 5.22
25 | COc1nc(Nc2ccc(Br)cc2)nc(-c2cc(Cl)ccc2C)n1 [Example 21] | 6.70
26 | Cc1ccc(Cl)cc1-c1nc(N)nc(Nc2ccc(CF)cc2)n1 [Example 68, 6-(5-Chloro-2-methyl-phenyl)-N-(4-fluoromethyl-phenyl)-[1,3,5]-triazine-2,4-diamine] | 6.89
27 | CCOc1ccc(Cl)cc1-c1nc(N)nc(Nc2ccc(CO)cc2)n1 [Example 53, {4-[4-Amino-6-(5-chloro-2-ethoxy-phenyl) [1,3,5]triazin-2-ylamino]-phenyl}-methanol] | 5.74
28 | Nc1nc(Nc2ccc(Br)cc2)nc(-c2cc(Cl)ccc2Cl)n1 [Example 12, N-2-(4-Bromophenyl)-6-(2,5-dichlorophenyl)-[1,3,5]triazine-2,4-diamine] | 7.15
29 | Cc1ccc(Nc2nc(N)nc(-c3cc(Cl)ccc3C)n2)cc1C [Example 59, 6-(5-Chloro-2-methyl-phenyl)-N-(3,4-dimethyl-phenyl)-[1,3,5]triazine-2,4-diamine] | 6.40
30 | CCOc1ccc(Cl)cc1-c1nc(N)nc(Nc2ccc3c(c2)OCO3)n1 [Example 55, N-Benzo[1.3]dioxol-5-yl-6-(5-chloro-2-ethoxy-phenyl)[1,3,5]triazine-2,4-diamine] | 6.10
31 | Cc1ccc(Cl)cc1-c1nc(Cl)nc(Nc2ccc(N=[N+]=[N-])cc2)n1 [Example 35, [6-(5-Chloro-2-methyl-phenyl)-2-chloro-3-yl-[1,3,5]-triazin-4-yl]-(4-azido-phenyl)-amine] | 6.89

From patent US7618968B2, “Aryl triazines as LPAAT-β inhibitors and uses thereof” (Cell Therapeutics, Inc., priority 2001, dated 2009)
